Laboratory results from US8202856B2 (Merck Serono SA, priority 2007, dated 2012).

biological target: S1P1 receptor (Homo sapiens, UniProt P21453); experiment: 35S-GTPγS binding, membranes from CHO cells expressing S1P1; type: biochemical; conditions: CHO cell membranes expressing S1P1
Protocol: Receptor binding assay: Membranes were prepared from CHO cells expressing S1P1 or S1P3 for use in ligand and 35S-GTPTS binding studies. Cells were suspended in 50 mM TRIS, pH 7.4, 2 mM EDTA, 250 mM Sucrose (buffer A) and 1× Complete protease inhibitor cocktail (Roche), and disrupted at 4° C. by nitrogen decompression using a cell disruption bomb (Parr Instrument). Following centrifugation at 1000 RPM for 10 min at 4° C., the supernatant was suspended in buffer A and centrifuged again at 19000 RPM for 60 min at 4° C. The pellet was then suspended in 10 mM HEPES, pH 7.4, 1 mM EDTA, 250 mM Sucrose (Buffer B), and 1× Complete EDTA-free protease inhibitor cocktail and homogenized using a potter. Membranes were flash frozen in liquid nitrogen and stored at −80° C. [33P]sphingosine 1-phosphate (3000 Ci/mmol; American Radiolabeled Chemicals, Inc.) was added to test compounds in DMSO. Membranes and WGA SPA beads (GE Healthcare) were added to give a final volume of 100 μl in 96-well plates with assay concentrations of […] [33P]sphingosine 1-phosphate (respectively for S1P1 or S1P3), 50 mM HEPES, pH 7.5, 5 mM MgCl2, 100 mM NaCl, 0.4% fatty acid-free BSA, 1-5 μg/well of proteins and 100 μg/well of WGA SPA beads. Binding was performed for 60 min at room temperature on a shaker and bound radioactivity was measured on a PerkinElmer 1450 MicroBeta counter. Specific binding was calculated by subtracting remaining radioactivity in the presence of 1000-fold excess of unlabeled S1P. Binding data were analyzed using the GraphPad Prism program.
Measurements of ^35S-GTPγS Binding: Membranes (1 to 10 μg protein) prepared as described above, were incubated in 96-well Scintiplates (PerkinElmer) with test compounds diluted in DMSO, in 180 μl of 20 mM HEPES, pH 7.4, 10 mM MgCl2, 2 μg/well Saponin, 0.2% fatty acid free BSA (Assay buffer), 140 mM NaCl and 1.7 μM GDP. The assay was initiated with the addition of 20 μl of 1.5 nM [35S]-GTPγS (1100 Ci/mmol; GE Healthcare) in assay buffer. After 60 min incubation at 30° C. on a shaker, plates were centrifuged for 10 min at 2000 RPM. Supernatant was discarded and membrane bound radioactivity was measured on a PerkinElmer 1450 MicroBeta counter. Triplicate samples were averaged and expressed as response relative to S1P activation in absence of compound (n=2).

Sequence of S1P1 receptor (P21453 whole entry): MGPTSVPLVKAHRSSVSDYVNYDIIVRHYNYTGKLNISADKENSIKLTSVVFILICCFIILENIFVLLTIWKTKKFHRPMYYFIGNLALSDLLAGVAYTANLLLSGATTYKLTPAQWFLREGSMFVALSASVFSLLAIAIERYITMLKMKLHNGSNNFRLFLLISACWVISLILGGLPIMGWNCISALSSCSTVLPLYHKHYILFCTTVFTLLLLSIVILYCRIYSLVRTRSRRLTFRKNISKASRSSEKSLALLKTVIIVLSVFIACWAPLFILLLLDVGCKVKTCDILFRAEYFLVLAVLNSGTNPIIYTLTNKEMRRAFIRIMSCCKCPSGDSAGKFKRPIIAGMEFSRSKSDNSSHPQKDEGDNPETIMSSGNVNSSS

SMILES | EC50
CN(C)Cc1c(-c2nc(-c3cc(F)ccc3F)no2)nnn1-c1ccccc1F [Example 91, 1-[4-[3-(2,5-difluorophenyl)-1,2,4-oxadiazol-5-yl]-1-(2-fluorophenyl)-1H-1,2,3-triazol-5-yl]-N,N-dimethylmethanamine] | 443 nM
Fc1ccccc1-n1nnc(-c2nc(-c3cccnc3)no2)c1-c1ccncc1 [Example 42, 3-{5-[1-(2-fluorophenyl)-5-pyridin-4-yl-1H-1,2,3-triazol-4-yl]-1,2,4-oxadiazol-3-yl}pyridine] | 42 nM
COCCc1c(-c2nc(-c3cc(F)ccc3F)no2)nnn1-c1ccccc1F [Example 44, 3-(2,5-difluorophenyl)-5-[1-(2-fluorophenyl)-5-(2-methoxyethyl)-1H-1,2,3-triazol-4-yl]-1,2,4-oxadiazole] | 53 nM
Fc1ccccc1-n1nnc(-c2nc(-c3cccc(Br)c3)no2)c1-c1ccncc1 [Example 100, 4-[4-[3-(3-bromophenyl)-1,2,4-oxadiazol-5-yl]-1-(2-fluorophenyl)-1H-1,2,3-triazol-5-yl]pyridine] | 18 nM
CC(C)(C)OC(=O)NCc1ccc(-c2noc(-c3nnn(-c4ccccc4F)c3-c3ccncc3)n2)cc1 [Example 74, tert-butyl (4-{5-[1-(2-fluorophenyl)-5-pyridin-4-yl-1H-1,2,3-triazol-4-yl]-1,2,4-oxadiazol-3-yl}benzyl)carbamate] | 1100 nM
Fc1ccccc1-n1nnc(-c2nc(-c3cccc(CN4CCOCC4)c3)no2)c1-c1ccncc1 [Example 60, 4-(3-{5-[1-(2-fluorophenyl)-5-pyridin-4-yl-1H-1,2,3-triazol-4-yl]-1,2,4-oxadiazol-3-yl}benzyl)morpholine] | 620 nM
COc1ccc(-c2noc(-c3nnn(-c4ccccc4F)c3-c3ccccn3)n2)cc1 [Example 57, 2-{1-(2-fluorophenyl)-4-[3-(4-methoxyphenyl)-1,2,4-oxadiazol-5-yl]-1H-1,2,3-triazol-5-yl}pyridine] | 959 nM
CS(=O)(=O)c1cccc(-c2noc(-c3nnn(-c4ccccc4F)c3-c3ccccn3)n2)c1 [Example 84, 2-(1-(2-fluorophenyl)-4-{3-[3-(methylsulfonyl)phenyl]-1,2,4-oxadiazol-5-yl}-1H-1,2,3-triazol-5-yl)pyridine] | 418 nM

More lines, now with the values ahead:

EC50 | SMILES
18 nM | OC1CN(Cc2ccc(-c3noc(-c4nnn(-c5ccccc5F)c4-c4ccncc4)n3)cc2)C1 [Example 135, 1-(4-{5-[1-(2-fluorophenyl)-5-pyridin-4-yl-1H-1,2,3-triazol-4-yl]-1,2,4-oxadiazol-3-yl}benzyl)azetidin-3-ol]
17 nM | Fc1ccccc1-n1nnc(-c2nc(-c3cccc(C(F)(F)F)c3)no2)c1-c1ccncc1 [Example 103, 4-(1-(2-fluorophenyl)-4-{3-[3-(trifluoromethyl)phenyl]-1,2,4-oxadiazol-5-yl}-1H-1,2,3-triazol-5-yl)pyridine]
74 nM | OC1CCN(Cc2ccc(-c3noc(-c4nnn(-c5ccccc5F)c4-c4ccncc4)n3)cc2)CC1 [Example 141, 1-(4-{5-[1-(2-fluorophenyl)-5-pyridin-4-yl-1H-1,2,3-triazol-4-yl]-1,2,4-oxadiazol-3-yl}benzyl)piperidin-4-ol]
45 nM | CN(CC(=O)O)Cc1ccc(-c2noc(-c3nnn(-c4ccccc4F)c3-c3ccncc3)n2)cc1 [Example 130, N-(4-{5-[1-(2-fluorophenyl)-5-pyridin-4-yl-1H-1,2,3-triazol-4-yl]-1,2,4-oxadiazol-3-yl}benzyl)-N-methylglycine]
251 nM | Fc1ccccc1-n1nnc(-c2nc(-c3ccc4[nH]cnc4c3)no2)c1-c1ccncc1 [Example 155, 5-{5-[1-(2-fluorophenyl)-5-pyridin-4-yl-1H-1,2,3-triazol-4-yl]-1,2,4-oxadiazol-3-yl}-1H-benzimidazole]
5 nM | Fc1ccccc1-n1nnc(-c2nc(-c3ccc(Cn4cncn4)cc3)no2)c1-c1ccncc1 [Example 172, 4-(1-(2-fluorophenyl)-4-{3-[4-(1H-1,2,4-triazol-1-ylmethyl)phenyl]-1,2,4-oxadiazol-5-yl}-1H-1,2,3-triazol-5-yl)pyridine]
